Read-outs that look alike come from different tables or passages of the source.
Key:
Format in all cases: cell-based
[1] = target: T1, hGIPR (Homo sapiens, UniProt P48546); assay: Functional cAMP formation (HTRF) in HEK-293 clonal cells expressing hGIPR, 0.1% bovine casein, without or with 1.0% human serum albumin; conditions: for Emax: percent of maximal response to GIP(1-42)NH2; for EC50: cAMP
T1 construct: expressed in transfected cells
T1 sequence (P48546 22-466): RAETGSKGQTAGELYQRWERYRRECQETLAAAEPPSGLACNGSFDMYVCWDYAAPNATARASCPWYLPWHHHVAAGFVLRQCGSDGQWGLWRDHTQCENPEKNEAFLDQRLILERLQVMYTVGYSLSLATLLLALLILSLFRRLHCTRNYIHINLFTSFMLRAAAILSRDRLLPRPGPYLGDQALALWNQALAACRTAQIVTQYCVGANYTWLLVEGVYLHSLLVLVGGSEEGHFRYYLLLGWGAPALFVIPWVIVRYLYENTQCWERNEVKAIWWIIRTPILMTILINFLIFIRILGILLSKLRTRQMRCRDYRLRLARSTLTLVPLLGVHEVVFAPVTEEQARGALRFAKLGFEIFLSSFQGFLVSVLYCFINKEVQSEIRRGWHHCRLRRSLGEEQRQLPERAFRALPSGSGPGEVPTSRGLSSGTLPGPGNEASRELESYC
Procedure, shortened: (§1)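 Cells were stimulated with peptide for 30 min at 37° C, then lysed in buffer carrying cAMP-d2 and anti-cAMP Eu3+-cryptate for a competitive HTRF read after at least 60 min at room temperature. The 665/620 nm ratio was converted to nM cAMP against a standard curve.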

[2] = target: T2, hGCGR (Homo sapiens, UniProt P47871); assay: Functional cAMP formation (HTRF) in HEK-293 clonal cells expressing hGCGR, 0.1% bovine casein, without or with 1.0% human serum albumin; conditions: cAMP, 37° C.
T2 construct: expressed in transfected cells
T2 sequence (P47871 26-477): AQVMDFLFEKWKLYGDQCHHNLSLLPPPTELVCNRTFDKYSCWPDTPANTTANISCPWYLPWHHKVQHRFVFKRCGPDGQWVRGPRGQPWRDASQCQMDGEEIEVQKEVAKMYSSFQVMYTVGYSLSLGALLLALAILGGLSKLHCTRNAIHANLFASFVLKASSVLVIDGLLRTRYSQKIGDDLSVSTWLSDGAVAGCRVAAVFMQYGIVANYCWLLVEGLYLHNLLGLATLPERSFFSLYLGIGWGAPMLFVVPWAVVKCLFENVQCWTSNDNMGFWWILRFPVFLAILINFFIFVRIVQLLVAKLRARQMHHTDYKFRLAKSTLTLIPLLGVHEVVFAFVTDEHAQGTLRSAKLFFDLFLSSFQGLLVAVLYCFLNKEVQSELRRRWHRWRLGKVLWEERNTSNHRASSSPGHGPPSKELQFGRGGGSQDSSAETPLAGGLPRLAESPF
Procedure, shortened: as §1

[3] = target: hGLP-1R (Homo sapiens, UniProt P43220); assay: Functional cAMP formation (HTRF) in HEK-293 clonal cells expressing hGLP-1R, 0.1% bovine casein, without or with 1.0% human serum albumin; parameters: expressed in transfected cells; conditions: for Emax: percent of maximal response to GLP-1(7-36)NH2; for EC50: cAMP
Chain of hGLP-1R (P43220 24-463): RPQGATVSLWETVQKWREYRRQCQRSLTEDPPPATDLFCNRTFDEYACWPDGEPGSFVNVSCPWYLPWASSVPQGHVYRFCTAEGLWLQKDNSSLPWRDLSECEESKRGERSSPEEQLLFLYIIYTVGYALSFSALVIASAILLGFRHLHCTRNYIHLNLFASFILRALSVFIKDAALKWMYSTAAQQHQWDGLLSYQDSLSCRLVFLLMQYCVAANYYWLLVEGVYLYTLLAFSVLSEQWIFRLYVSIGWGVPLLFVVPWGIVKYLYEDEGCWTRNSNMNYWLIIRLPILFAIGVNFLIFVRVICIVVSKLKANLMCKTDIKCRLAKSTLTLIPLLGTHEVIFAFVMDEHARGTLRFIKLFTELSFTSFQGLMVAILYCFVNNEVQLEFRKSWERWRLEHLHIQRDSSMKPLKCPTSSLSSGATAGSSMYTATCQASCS
Procedure, shortened: as §1

[4] = HEK293, cAMP, 37° C., 0.1% bovine casein and 1.0% human serum albumin, read-out: hGIPR Emax, % ± SEM
[5] = 37° C., 0.1% bovine casein (no human serum albumin), geometric mean, read-out: hGIPR EC50, nM (SEM, n)
[6] = 0.1% bovine casein (no human serum albumin), geometric mean, read-out: hGCGR EC50, nM (SEM, n)
[7] = 0.1% bovine casein and 1.0% human serum albumin, geometric mean (SEM, n), read-out: hGCGR EC50, nM (SEM, n)
[8] = HEK293, cAMP, 37° C., 0.1% bovine casein and 1.0% human serum albumin, read-out: hGLP-1R Emax, % ± SEM
[9] = HEK293, cAMP, 37° C., 0.1% bovine casein, arithmetic mean, read-out: hGLP-1R Emax, % ± SEM
[10] = 37° C., 0.1% bovine casein (no human serum albumin), geometric mean, read-out: hGLP-1R EC50, nM (SEM, n)
[11] = HEK293, cAMP, 37° C., 0.1% bovine casein, arithmetic mean, read-out: hGIPR Emax, % ± SEM

Row | SMILES | Emax [1, 4] [%] | EC50 [1, 5] [nM] | EC50 [2, 6] [nM] | EC50 [2, 7] [nM] | Emax [3, 8] [%] | Emax [3, 9] [%] | EC50 [3, 10] [nM] | Emax [1, 11] [%] | Emax ([1]; HEK293, read-out: hGIPR Emax, % ± SEM, cAMP, 37° C., 0.1% bovine casein and 1.0% human serum albumin) [%] | Emax ([1]; HEK293, read-out: hGIPR Emax, % ± SEM, cAMP, 37° C., 0.1% bovine casein, arithmetic mean) [%] | EC50 ([1]; hGIPR EC50, nM (SEM, n), 37° C., 0.1% bovine casein (no human serum albumin), geometric mean) [nM] | EC50 ([1]; hGIPR EC50, nM (SEM, n), 37° C., 0.1% bovine casein and 1.0% human serum albumin, geometric mean (SEM, n)) [nM] | EC50 ([2]; hGCGR EC50, nM (SEM, n), 0.1% bovine casein (no human serum albumin), geometric mean) [nM] | EC50 ([2]; hGCGR EC50, nM (SEM, n), 0.1% bovine casein and 1.0% human serum albumin, geometric mean (SEM, n)) [nM] | Emax ([3]; HEK293, read-out: hGLP-1R Emax, % ± SEM, cAMP, 37° C., 0.1% bovine casein and 1.0% human serum albumin) [%] | EC50 ([3]; hGLP-1R EC50, nM (SEM, n), 37° C., 0.1% bovine casein (no human serum albumin), geometric mean) [nM] | EC50 ([3]; hGLP-1R EC50, nM (SEM, n), 37° C., 0.1% bovine casein and 1.0% human serum albumin, geometric mean (SEM, n)) [nM]
1 | CC[C@H](C)[C@H](NC(=O)[C@H](CC(C)C)NC(=O)[C@](C)(Cc1ccc(O)cc1)NC(=O)[C@@H](CCC(=O)O)NC(=O)[C@@H](NC(=O)[C@H](Cc1ccccc1)NC(=O)[C@H](CCC(=O)O)NC(=O)C(C)(C)NC(=O)[C@H](CCC(N)=O)NC(=O)[C@H](C)NC(=O)[C@H](CCCCNC(=O)COCCOCCNC(=O)CC[C@H](NC(=O)CCCCCCCCCCCCC(=O)O)C(=O)O)NC(=O)[C@H](CCCN)NC(=O)[C@H](CC(=O)O)NC(=O)[C@H](CC(C)C)NC(=O)[C@](C)(CC(C)C)NC(=O)[C@@H](NC(=O)C(C)(C)NC(=O)[C@@H](NC(=O)[C@H](CC(=O)O)NC(=O)[C@H](CO)NC(=O)[C@@H](NC(=O)[C@](C)(Cc1ccccc1F)NC(=O)[C@@H](NC(=O)CNC(=O)[C@H](CCC(=O)O)NC(=O)C(C)(C)NC(=O)[C@@H](N)Cc1ccc(O)cc1)[C@@H](C)O)[C@@H](C)O)C(C)C)[C@@H](C)CC)[C@@H](C)CC)C(=O)N[C@@H](CCCCNC(=O)COCCOCCNC(=O)CC[C@H](NC(=O)CCCCCCCCCCCCC(=O)O)C(=O)O)C(=O)NCC(=O)NCC(=O)N1CCC[C@H]1C(=O)N[C@@H](CO)C(=O)N[C@@H](CO)C(=O)NCC(=O)N[C@@H](C)C(=O)N1CCC[C@H]1C(=O)N1CCC[C@H]1C(=O)N1CCC[C@H]1C(=O)N[C@@H](CO)C(N)=O [Example 399] | 86.8 | 0.0186 | > 9950 | > 9950 | 89.7 | 91.9 | 0.259 |  |  |  |  |  |  |  |  |  | 
2 | CC[C@H](C)[C@H](NC(=O)[C@H](CCCN)NC(=O)[C@H](CC(=O)O)NC(=O)[C@H](CC(C)C)NC(=O)[C@](C)(CC(C)C)NC(=O)[C@@H](NC(=O)C(C)(C)NC(=O)[C@@H](NC(=O)[C@H](CC(=O)O)NC(=O)[C@H](CO)NC(=O)[C@@H](NC(=O)[C@](C)(Cc1ccccc1F)NC(=O)[C@@H](NC(=O)CNC(=O)[C@H](CCC(=O)O)NC(=O)C(C)(C)NC(=O)[C@@H](N)Cc1ccc(O)cc1)[C@@H](C)O)[C@@H](C)O)C(C)C)[C@@H](C)CC)C(=O)N[C@@H](C)C(=O)N[C@@H](CCC(N)=O)C(=O)NC(C)(C)C(=O)N[C@@H](CCC(=O)O)C(=O)N[C@@H](Cc1ccccc1)C(=O)N[C@H](C(=O)N[C@@H](CCCCNC(=O)COCCOCCNC(=O)CC[C@H](NC(=O)CCCCCCCCCCCCC(=O)O)C(=O)O)C(=O)N[C@@](C)(Cc1ccc(O)cc1)C(=O)N[C@@H](CC(C)C)C(=O)N[C@H](C(=O)N[C@@H](CCCCNC(=O)COCCOCCNC(=O)CC[C@H](NC(=O)CCCCCCCCCCCCC(=O)O)C(=O)O)C(=O)NCC(=O)NCC(=O)N1CCC[C@H]1C(=O)N[C@@H](CO)C(=O)N[C@@H](CO)C(=O)NCC(=O)N[C@@H](C)C(=O)N1CCC[C@H]1C(=O)N1CCC[C@H]1C(=O)N1CCC[C@H]1C(=O)N[C@@H](CO)C(N)=O)[C@@H](C)CC)[C@@H](C)CC [Example 400] | 83.2 | 0.0821 | > 9950 | > 9950 | 109 |  | 0.708 | 98.1 |  |  |  |  |  |  |  |  | 
3 | CC[C@H](C)[C@H](NC(=O)[C@H](CC(C)C)NC(=O)[C@](C)(Cc1ccc(O)cc1)NC(=O)[C@H](CCCCNC(=O)COCCOCCNC(=O)COCCOCCNC(=O)CC[C@H](NC(=O)CCCCCCCCCCCCC(=O)O)C(=O)O)NC(=O)[C@@H](NC(=O)[C@H](Cc1ccccc1)NC(=O)[C@H](CCCN)NC(=O)C(C)(C)NC(=O)[C@H](CCC(N)=O)NC(=O)[C@H](C)NC(=O)[C@H](CCC(N)=O)NC(=O)[C@H](CCCN)NC(=O)[C@H](CC(=O)O)NC(=O)[C@H](CC(C)C)NC(=O)[C@](C)(CC(C)C)NC(=O)[C@@H](NC(=O)C(C)(C)NC(=O)[C@H](Cc1ccc(O)cc1)NC(=O)[C@H](CC(=O)O)NC(=O)[C@H](CO)NC(=O)[C@@H](NC(=O)[C@](C)(Cc1ccccc1F)NC(=O)[C@@H](NC(=O)CNC(=O)[C@H](CCC(=O)O)NC(=O)C(C)(C)NC(=O)[C@@H](N)Cc1ccc(O)cc1)[C@@H](C)O)[C@@H](C)O)[C@@H](C)CC)[C@@H](C)CC)C(=O)N[C@@H](CCCCNC(=O)COCCOCCNC(=O)COCCOCCNC(=O)CC[C@H](NC(=O)CCCCCCCCCCCCC(=O)O)C(=O)O)C(=O)NCC(=O)NCC(=O)N1CCC[C@H]1C(=O)N[C@@H](CO)C(=O)N[C@@H](CO)C(=O)NCC(=O)N[C@@H](C)C(=O)N1CCC[C@H]1C(=O)N1CCC[C@H]1C(=O)N1CCC[C@H]1C(=O)N[C@@H](CO)C(N)=O [Example 401] | 83 | 0.0112 | > 9950 | > 9950 |  |  | 0.235 | 98.9 |  |  |  |  |  |  |  |  | 
4 | CC[C@H](C)[C@H](NC(=O)[C@H](CC(C)C)NC(=O)[C@](C)(Cc1ccc(O)cc1)NC(=O)[C@H](CCCCNC(=O)COCCOCCNC(=O)COCCOCCNC(=O)CC[C@H](NC(=O)CCCCCCCCCOc1ccc(C(=O)O)cc1)C(=O)O)NC(=O)[C@@H](NC(=O)[C@H](Cc1ccccc1)NC(=O)[C@H](CCC(=O)O)NC(=O)C(C)(C)NC(=O)[C@H](CCC(N)=O)NC(=O)[C@H](C)NC(=O)[C@H](CCC(N)=O)NC(=O)[C@H](CCCN)NC(=O)[C@H](CC(=O)O)NC(=O)[C@H](CC(C)C)NC(=O)[C@](C)(CC(C)C)NC(=O)[C@@H](NC(=O)C(C)(C)NC(=O)[C@H](Cc1ccc(O)cc1)NC(=O)[C@H](CC(=O)O)NC(=O)[C@H](CO)NC(=O)[C@@H](NC(=O)[C@](C)(Cc1ccccc1F)NC(=O)[C@@H](NC(=O)CNC(=O)[C@H](CCC(=O)O)NC(=O)C(C)(C)NC(=O)[C@@H](N)Cc1ccc(O)cc1)[C@@H](C)O)[C@@H](C)O)[C@@H](C)CC)[C@@H](C)CC)C(=O)N[C@@H](CCCCNC(=O)COCCOCCNC(=O)COCCOCCNC(=O)CC[C@H](NC(=O)CCCCCCCCCOc1ccc(C(=O)O)cc1)C(=O)O)C(=O)NCC(=O)NCC(=O)N1CCC[C@H]1C(=O)N[C@@H](CO)C(=O)N[C@@H](CO)C(=O)NCC(=O)N[C@@H](C)C(=O)N1CCC[C@H]1C(=O)N1CCC[C@H]1C(=O)N1CCC[C@H]1C(=O)N[C@@H](CO)C(N)=O [Example 402] |  |  |  |  |  |  |  |  | 84.5 | 98.9 | 0.0132 | 1.11 | > 9950 | > 9950 | 110 | 0.221 | 13.5
5 | CC[C@H](C)[C@H](NC(=O)[C@H](CC(C)C)NC(=O)[C@](C)(Cc1ccc(O)cc1)NC(=O)[C@@H](CCC(=O)O)NC(=O)[C@@H](NC(=O)[C@H](Cc1ccccc1)NC(=O)[C@H](CCCCNC(=O)CCOCCOCCOCCNC(=O)CC[C@H](NC(=O)CCCCCCCCCCCCC(=O)O)C(=O)O)NC(=O)C(C)(C)NC(=O)[C@H](CCC(N)=O)NC(=O)[C@H](C)NC(=O)[C@H](CCCCNC(=O)CCOCCOCCOCCNC(=O)CC[C@H](NC(=O)CCCCCCCCCCCCC(=O)O)C(=O)O)NC(=O)[C@H](CCCN)NC(=O)[C@H](CC(=O)O)NC(=O)[C@H](CC(C)C)NC(=O)[C@](C)(CC(C)C)NC(=O)[C@@H](NC(=O)C(C)(C)NC(=O)[C@H](Cc1ccncc1)NC(=O)[C@H](CC(=O)O)NC(=O)[C@H](CO)NC(=O)[C@@H](NC(=O)[C@](C)(Cc1ccccc1F)NC(=O)[C@@H](NC(=O)CNC(=O)[C@H](CCC(=O)O)NC(=O)C(C)(C)NC(=O)[C@@H](N)Cc1ccc(O)cc1)[C@@H](C)O)[C@@H](C)O)[C@@H](C)CC)[C@@H](C)CC)C(=O)N[C@@H](CCC(=O)O)C(=O)NCC(=O)NCC(=O)N1CCC[C@H]1C(=O)N[C@@H](CO)C(=O)N[C@@H](CO)C(=O)NCC(=O)N[C@@H](C)C(=O)N1CCC[C@H]1C(=O)N1CCC[C@H]1C(=O)N1CCC[C@H]1C(=O)N[C@@H](CO)C(N)=O [Example 404] | 77.3 | 0.014 | > 9950 | > 9950 |  | 94.3 | 0.632 |  |  |  |  |  |  |  |  |  | 

From US20230265151A1, “GIP/GLP1 CO-AGONIST COMPOUNDS” (priority 2020, published 2023)
